Assay results taken from patent US20180148418A1, “AMIDO-SUBSTITUTED CYCLOHEXANE DERIVATIVES” (Bayer Pharma Aktiengesellschaft, priority 2015, published 2018).
Counter-ions that a name gives are not always drawn.

Legend:
TNKS1 = molecular target: T1, TNKS1 (Homo sapiens, UniProt O95271); test: TNKS1 Assay B (auto-parsylation, [3H]-NAD+ SPA); assay type: biochemical; conditions: 6 nM TNKS1, auto-parsylation, over night at room temperature
T1 construct: purchased BPS Bioscience, San Diego, USA 80579 (TNKS1 Histone Ribosylation Assay Kit)
T1 sequence (O95271 1-1327): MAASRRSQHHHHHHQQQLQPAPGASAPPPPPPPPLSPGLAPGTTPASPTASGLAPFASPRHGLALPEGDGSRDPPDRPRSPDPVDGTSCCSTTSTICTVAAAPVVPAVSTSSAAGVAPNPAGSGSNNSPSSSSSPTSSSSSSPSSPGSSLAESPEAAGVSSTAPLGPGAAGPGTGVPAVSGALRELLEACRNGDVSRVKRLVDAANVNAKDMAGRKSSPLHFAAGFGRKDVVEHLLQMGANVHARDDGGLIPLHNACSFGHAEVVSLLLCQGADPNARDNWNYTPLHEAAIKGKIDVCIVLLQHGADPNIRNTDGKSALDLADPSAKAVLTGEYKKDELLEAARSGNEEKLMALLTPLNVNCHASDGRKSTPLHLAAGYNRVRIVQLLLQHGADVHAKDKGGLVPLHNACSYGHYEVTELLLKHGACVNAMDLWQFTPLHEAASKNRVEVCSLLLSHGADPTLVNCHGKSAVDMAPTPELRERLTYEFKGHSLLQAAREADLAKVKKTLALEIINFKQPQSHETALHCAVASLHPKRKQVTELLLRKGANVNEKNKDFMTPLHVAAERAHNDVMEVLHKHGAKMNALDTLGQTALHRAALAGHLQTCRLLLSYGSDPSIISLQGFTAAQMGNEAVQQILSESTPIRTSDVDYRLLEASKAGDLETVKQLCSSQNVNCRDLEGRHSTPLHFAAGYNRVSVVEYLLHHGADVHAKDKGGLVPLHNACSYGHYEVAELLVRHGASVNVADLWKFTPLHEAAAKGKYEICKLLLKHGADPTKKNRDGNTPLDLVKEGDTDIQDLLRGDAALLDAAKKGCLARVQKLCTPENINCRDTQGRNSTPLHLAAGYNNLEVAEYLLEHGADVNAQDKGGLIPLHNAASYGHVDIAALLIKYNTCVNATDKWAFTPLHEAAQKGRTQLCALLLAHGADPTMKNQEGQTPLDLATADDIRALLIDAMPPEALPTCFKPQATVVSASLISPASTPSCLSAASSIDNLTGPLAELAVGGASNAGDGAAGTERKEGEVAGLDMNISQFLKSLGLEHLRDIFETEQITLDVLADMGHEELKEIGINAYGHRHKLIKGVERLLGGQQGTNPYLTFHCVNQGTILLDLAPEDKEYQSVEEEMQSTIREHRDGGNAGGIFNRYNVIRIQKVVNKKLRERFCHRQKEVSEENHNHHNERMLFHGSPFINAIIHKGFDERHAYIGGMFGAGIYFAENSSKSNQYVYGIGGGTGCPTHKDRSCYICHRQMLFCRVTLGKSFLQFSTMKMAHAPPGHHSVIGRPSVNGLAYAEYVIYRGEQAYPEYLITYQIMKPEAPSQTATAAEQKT

[1] = test system: HEK293 cells cotransfected with the FOP control vector; test: HEK293 FOP assay (control reporter with non-functional TCF elements); assay type: cell-based; conditions: Homo sapiens, 16 hours
Outline: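 Stable HEK293 line carrying FOP control reporter (randomized non-functional TCF sites, with pcDNA3), Geneticin-selected, plated 24 h before assay. Stimulated with recombinant human Wnt-3a (2500-5 ng/ml) and compounds 50 μM–15 nM (3.16-fold steps) in CAFTY buffer pH 7.4 with 2 mM Ca2+, 0.01% BSA, run parallel to TOP line.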

SMILES	IC50 (TNKS1) [µM]	IC50 [1] [µM]
CNC(=O)c1[nH]cnc1C(=O)N[C@H]1CC[C@@]2(CCN(c3ccc(F)cc3)C2=O)CC1 [Example 212, N^4-[(trans)-2-(4-fluorophenyl)-1-oxo-2-azaspiro[4.5]dec-8-yl]-N^5-methyl-1H-imidazole-4,5-dicarboxamide]	0.56	38
CCNC(=O)c1[nH]cnc1C(=O)N[C@H]1CC[C@@]2(CCN(c3ccc(F)cc3)C2=O)CC1 [Example 213, N^5-ethyl-N^4-[(trans)-2-(4-fluorophenyl)-1-oxo-2-azaspiro[4.5]dec-8-yl]-1H-imidazole-4,5-dicarboxamide]	0.34	30
O=C(N[C@H]1CC[C@@]2(CCN(c3ccc(F)cc3Cl)C2=O)CC1)c1cnn2cc(CCO)cnc12 [Example 214, N-[(trans)-2-(2-chloro-4-fluorophenyl)-1-oxo-2-azaspiro[4.5]dec-8-yl]-6-(2-hydroxyethyl)pyrazolo[1,5-a]pyrimidine-3-carboxamide]	0.012	≥ 50
CNc1ccn2ncc(C(=O)N[C@H]3CC[C@@]4(CCN(c5ccc(F)cc5Cl)C4=O)CC3)c2n1 [Example 215, N-[(trans)-2-(2-chloro-4-fluorophenyl)-1-oxo-2-azaspiro[4.5]dec-8-yl]-5-(methylamino)pyrazolo[1,5-a]pyrimidine-3-carboxamide]	0.0075	≥ 50
Cc1nn2cccnc2c1C(=O)N[C@H]1CC[C@@]2(CCN(c3ccc(F)cc3Cl)C2=O)CC1 [Example 216, N-[(trans)-2-(2-chloro-4-fluorophenyl)-1-oxo-2-azaspiro[4.5]dec-8-yl]-2-methylpyrazolo[1,5-a]pyrimidine-3-carboxamide]	0.57	≥ 50
COc1ccn2ncc(C(=O)N[C@H]3CC[C@@]4(CCN(c5ccc(F)cc5Cl)C4=O)CC3)c2n1 [Example 218, N-[(trans)-2-(2-chloro-4-fluorophenyl)-1-oxo-2-azaspiro[4.5]dec-8-yl]-5-methoxypyrazolo[1,5-a]pyrimidine-3-carboxamide]	0.014	≥ 50
Cc1ccn2ncc(C(=O)N[C@H]3CC[C@@]4(CCN(c5ccc(F)cc5Cl)C4=O)CC3)c2n1 [Example 221, N-[(trans)-2-(2-chloro-4-fluorophenyl)-1-oxo-2-azaspiro[4.5]dec-8-yl]-5-methylpyrazolo[1,5-a]pyrimidine-3-carboxamide]	0.011	18
Cc1ccnc2c(C(=O)N[C@H]3CC[C@@]4(CCN(c5ccc(F)cc5Cl)C4=O)CC3)cnn12 [Example 222, N-[(trans)-2-(2-chloro-4-fluorophenyl)-1-oxo-2-azaspiro[4.5]dec-8-yl]-7-methylpyrazolo[1,5-a]pyrimidine-3-carboxamide]	0.013	≥ 50
Cc1cc(C(F)F)n2ncc(C(=O)N[C@H]3CC[C@@]4(CCN(c5ccc(F)cc5Cl)C4=O)CC3)c2n1 [Example 224, N-[(trans)-2-(2-chloro-4-fluorophenyl)-1-oxo-2-azaspiro[4.5]dec-8-yl]-7-(difluoromethyl)-5-methylpyrazolo[1,5-a]pyrimidine-3-carboxamide]	0.014	≥ 50
CC(C)(C)OC(=O)N1CCN(c2ccn3ncc(C(=O)N[C@H]4CC[C@@]5(CCN(c6ccc(F)cc6Cl)C5=O)CC4)c3n2)CC1 [Example 225, tert-butyl 4-(3-{[(trans)-2-(2-chloro-4-fluorophenyl)-1-oxo-2-azaspiro[4.5]dec-8-yl]carbamoyl}pyrazolo[1,5-a]pyrimidin-5-yl)piperazine-1-carboxylate]	0.006	≥ 50
O=C(N[C@H]1CC[C@@]2(CCN(c3ccc(F)cc3Cl)C2=O)CC1)c1cnn2ccc(N3CCNCC3)nc12 [Example 226, N-[(trans)-2-(2-chloro-4-fluorophenyl)-1-oxo-2-azaspiro[4.5]dec-8-yl]-5-(piperazin-1-yl)pyrazolo[1,5-a]pyrimidine-3-carboxamide hydrochloric acid salt]	0.0082	≥ 0.5
O=C(N[C@H]1CC[C@@]2(CCN(c3ccccc3Cl)C2=O)CC1)c1cnn2cccnc12 [Example 256, N-[(trans)-2-(2-chlorophenyl)-1-oxo-2-azaspiro[4.5]dec-8-yl]pyrazolo[1,5-a]pyrimidine-3-carboxamide]	0.012	≥ 50
Cc1cc(C)n2ncc(C(=O)N[C@H]3CC[C@@]4(CCN(c5ccccc5Cl)C4=O)CC3)c2n1 [Example 257, N-[(trans)-2-(2-chlorophenyl)-1-oxo-2-azaspiro[4.5]dec-8-yl]-5,7-dimethylpyrazolo[1,5-a]pyrimidine-3-carboxamide]	0.01	≥ 50
CCNC(=O)c1nc[nH]c1C(=O)N[C@H]1CC[C@@]2(CCN(c3ccccc3Cl)C2=O)CC1 [Example 258, N^5-[(trans)-2-(2-chlorophenyl)-1-oxo-2-azaspiro[4.5]dec-8-yl]-N^4-ethyl-1H-imidazole-4,5-dicarboxamide]	0.013	≥ 50
CNC(=O)c1nc[nH]c1C(=O)N[C@H]1CC[C@@]2(CCN(c3ccccc3Cl)C2=O)CC1 [Example 264, N^5-[(trans)-2-(2-chlorophenyl)-1-oxo-2-azaspiro[4.5]dec-8-yl]-N^4-methyl-1H-imidazole-4,5-dicarboxamide]	0.02	33

Further molecules by falling IC50 (TNKS1), results first:

IC50 (TNKS1) [µM]	SMILES	IC50 [1] [µM]
0.43	Cc1cc(C)n2ncc(C(=O)N[C@H]3CC[C@@]4(CCN(c5ccc(F)cc5)C4=O)CC3)c2n1 [Example 211, N-[(trans)-2-(4-fluorophenyl)-1-oxo-2-azaspiro[4.5]dec-8-yl]-5,7-di methyl pyrazolo[1,5-a]pyrimidine-3-carboxamide]	25
0.071	O=C(N[C@H]1CC[C@@]2(CCN(c3ccc(F)cc3Cl)C2=O)CC1)c1cnn2c(C(F)(F)F)ccnc12 [Example 233, N-[(trans)-2-(2-chloro-4-fluorophenyl)-1-oxo-2-azaspiro[4.5]dec-8-yl]-7-(trifluoromethyl)pyrazolo[1,5-a]pyrimidine-3-carboxamide]	≥ 50
0.012	COCCNC(=O)c1nc[nH]c1C(=O)N[C@H]1CC[C@@]2(CCN(c3ccccc3Cl)C2=O)CC1 [Example 259, N^5-[(trans)-2-(2-chlorophenyl)-1-oxo-2-azaspiro[4.5]dec-8-yl]-N^4-(2-methoxyethyl)-1H-imidazole-4,5-dicarboxamide]	≥ 50
0.0085	O=C(N[C@H]1CC[C@@]2(CCN(c3ccc(F)cc3Cl)C2=O)CC1)c1cnn2ccc(N3CCCC3)nc12 [Example 232, N-[(trans)-2-(2-chloro-4-fluorophenyl)-1-oxo-2-azaspiro[4.5]dec-8-yl]-5-(pyrrolidin-1-yl)pyrazolo[1,5-a]pyrimidine-3-carboxamide]	≥ 50
0.0074	CC1CCN(CCNC(=O)c2nc[nH]c2C(=O)N[C@H]2CC[C@@]3(CCN(c4ccccc4Cl)C3=O)CC2)CC1 [Example 260, N^5-[(trans)-2-(2-chlorophenyl)-1-oxo-2-azaspiro[4.5]dec-8-yl]-N^4-[2-(4-methylpiperidin-1-yl)ethyl]-1H-imidazole-4,5-dicarboxamide]	≥ 50
0.0061	CN(C)c1ccn2ncc(C(=O)N[C@H]3CC[C@@]4(CCN(c5ccc(F)cc5Cl)C4=O)CC3)c2n1 [Example 217, N-[(trans)-2-(2-chloro-4-fluorophenyl)-1-oxo-2-azaspiro[4.5]dec-8-yl]-5-(dimethylamino)pyrazolo[1,5-a]pyrimidine-3-carboxamide]	≥ 50
